Here are results for 53 molecules from ChEMBL document CHEMBL3880421, “Indazole compounds and pharmaceutical compositions for inhibiting protein kinases, and methods for their use” (2003).

Molecules are shown by their SMILES.

This assay is described as follows: Antiproliferative activity against VEGF-stimulated HUVEC cells assessed as reduction in cell viability at 0.5 nM preincubated for 1 hr followed by addition of VEGF measured after 72 hrs by MTT assay. It is filed as functional. The following applies: Homo sapiens.
For `Cc1ccc(Cl)cc1NC(=O)c1ccccc1Sc1ccc2c(/C=C/c3ccccn3)n[nH]c2c1`, the inhibition at 0.0005 µM is 22%.

Consider `Cc1c(O)cccc1NC(=O)c1ccccc1Sc1ccc2c(/C=C/c3ccccn3)n[nH]c2c1`, for which the inhibition at 0.0005 µM came out at 1%.

With `CC(C)c1cccc(NC(=O)c2ccccc2Sc2ccc3c(/C=C/c4ccccn4)n[nH]c3c2)c1`, the inhibition at 0.0005 µM stood at 8%.

On to `O=C(NCc1ccccc1F)c1ccccc1Nc1ccc2c(/C=C/c3ccccn3)n[nH]c2c1`, for which the inhibition at 0.0005 µM was found to be 75%.

As for `Cc1cc(C)c(O)c(NC(=O)c2ccccc2Sc2ccc3c(/C=C/c4ccccn4)n[nH]c3c2)c1`, the inhibition at 0.0005 µM was -5%.

Take `CC(C)OCCNC(=O)c1ccccc1Nc1ccc2c(/C=C/c3ccccn3)n[nH]c2c1`: the inhibition at 0.0005 µM worked out at 51%.

Regarding `CCC(NC(=O)c1ccccc1Nc1ccc2c(/C=C/c3ccccn3)n[nH]c2c1)c1ccccc1` (stereo not drawn), the inhibition at 0.0005 µM came out at 45%.

Take `O=C(Nc1nccc2cccnc12)c1ccccc1Sc1ccc2c(/C=C/c3ccccn3)n[nH]c2c1`: the inhibition at 0.0005 µM is -3%.

Take `CCOC(=O)c1c[nH]nc1NC(=O)c1ccccc1Sc1ccc2c(/C=C/c3ccccn3)n[nH]c2c1`: the inhibition at 0.0005 µM was -11%.

On to `O=C(N[C@@H]1C[C@H]1c1ccccc1)c1ccccc1Sc1ccc2c(/C=C/c3ccccn3)n[nH]c2c1` (racemic), for which the inhibition at 0.0005 µM was found to be 10%.

In the case of `O=C(NCc1ccccc1)c1ccccc1Nc1ccc2c(/C=C/c3ccccn3)n[nH]c2c1`, the inhibition at 0.0005 µM amounted to 70%.

Consider `CCONC(=O)c1ccccc1Nc1ccc2c(/C=C/c3ccccn3)n[nH]c2c1`, for which the inhibition at 0.0005 µM turned out to be 72%.

Turning to `O=C(Nc1ccc(O)cc1O)c1ccccc1Sc1ccc2c(/C=C/c3ccccn3)n[nH]c2c1`, the inhibition at 0.0005 µM was found to be 20%.

With `O=C(NCc1ccc2c(c1)OCO2)c1ccccc1Nc1ccc2c(/C=C/c3ccccn3)n[nH]c2c1`, the inhibition at 0.0005 µM is 46%.

`O=C(N[C@@H]1c2ccccc2C[C@@H]1O)c1ccccc1Sc1ccc2c(/C=C/c3ccccn3)n[nH]c2c1`: the inhibition at 0.0005 µM was -6%.

As for `CCc1cccc(NC(=O)c2ccccc2Sc2ccc3c(/C=C/c4ccccn4)n[nH]c3c2)n1`, the inhibition at 0.0005 µM is -12%.

Regarding `O=C(N[C@H](CO)c1ccccc1)c1ccccc1Sc1ccc2c(/C=C/c3ccccn3)n[nH]c2c1`, the inhibition at 0.0005 µM turned out to be 18%.

Consider `O=C(Nc1cc(Cl)ccc1O)c1ccccc1Sc1ccc2c(/C=C/c3ccccn3)n[nH]c2c1`, for which the inhibition at 0.0005 µM is -22%.

Turning to `COc1ccccc1NC(=O)c1ccccc1Sc1ccc2c(/C=C/c3ccccn3)n[nH]c2c1`, the inhibition at 0.0005 µM was -8%.

For the molecule `CC(O)c1cccc(NC(=O)c2ccccc2Sc2ccc3c(/C=C/c4ccccn4)n[nH]c3c2)c1` (stereo not drawn), the inhibition at 0.0005 µM is -32%.

Consider `O=C(N[C@H]1CCc2ccccc21)c1ccccc1Sc1ccc2c(/C=C/c3ccccn3)n[nH]c2c1`, for which the inhibition at 0.0005 µM fell in the range of 8 to 15%.

As to `C[C@@H](NC(=O)c1ccccc1Sc1ccc2c(/C=C/c3ccccn3)n[nH]c2c1)c1cccc2ccccc12`, the inhibition at 0.0005 µM is 1%.

As for `O=C(N[C@@H](CO)Cc1ccccc1)c1ccccc1Sc1ccc2c(/C=C/c3ccccn3)n[nH]c2c1`, the inhibition at 0.0005 µM is -3%.

With `O=C(NC[C@@H](O)c1ccccc1)c1ccccc1Sc1ccc2c(/C=C/c3ccccn3)n[nH]c2c1`, the inhibition at 0.0005 µM is 2%.

Regarding `COC(=O)c1ccc(NC(=O)c2ccccc2Sc2ccc3c(/C=C/c4ccccn4)n[nH]c3c2)c(O)c1`, the inhibition at 0.0005 µM is -22%.

For `O=C(NCC12CC3CC(CC(C3)C1)C2)c1ccccc1Sc1ccc2c(/C=C/c3ccccn3)n[nH]c2c1`, the inhibition at 0.0005 µM came to 1%.

As for `Cc1ccc(F)cc1NC(=O)c1ccccc1Sc1ccc2c(/C=C/c3ccccn3)n[nH]c2c1`, the inhibition at 0.0005 µM turned out to be 12%.

For `Cc1cc(C)c(NC(=O)c2ccccc2Sc2ccc3c(/C=C/c4ccccn4)n[nH]c3c2)c(C)c1`, the inhibition at 0.0005 µM is -10%.

As for `Cc1ccc(NC(=O)c2ccccc2Sc2ccc3c(/C=C/c4ccccn4)n[nH]c3c2)cc1Cl`, the inhibition at 0.0005 µM was -11%.

As for `C[C@H](CNC(=O)c1ccccc1Sc1ccc2c(/C=C/c3ccccn3)n[nH]c2c1)c1ccccc1`, the inhibition at 0.0005 µM was -9%.

Turning to `Cc1cc(F)ccc1NC(=O)c1ccccc1Sc1ccc2c(/C=C/c3ccccn3)n[nH]c2c1`, the inhibition at 0.0005 µM was -22%.

`Cc1ccccc1C(=O)NNC(=O)c1ccccc1Nc1ccc2c(/C=C/c3ccccn3)n[nH]c2c1`: the inhibition at 0.0005 µM came out at 86%.

Take `O=C(Nc1ccc(F)c(F)c1)c1ccccc1Sc1ccc2c(/C=C/c3ccccn3)n[nH]c2c1`: the inhibition at 0.0005 µM was -38%.

Regarding `Cc1cc(NC(=O)c2ccccc2Sc2ccc3c(/C=C/c4ccccn4)n[nH]c3c2)ccc1C(C)C`, the inhibition at 0.0005 µM worked out at 6%.

As to `O=C(N[n+]1ccccc1)c1ccccc1Nc1ccc2c(/C=C/c3ccccn3)n[nH]c2c1`, the inhibition at 0.0005 µM is 48%.

On to `CC(C)(C)CC(C)(C)NC(=O)c1ccccc1Sc1ccc2c(/C=C/c3ccccn3)n[nH]c2c1`, for which the inhibition at 0.0005 µM is 0%.

With `C#CC(NC(=O)c1ccccc1Sc1ccc2c(/C=C/c3ccccn3)n[nH]c2c1)C1CCCCC1` (stereo not drawn), the inhibition at 0.0005 µM amounted to 3%.

`O=C(NC[C@H]1CCCO1)c1ccccc1Sc1ccc2c(/C=C/c3ccccn3)n[nH]c2c1`: the inhibition at 0.0005 µM was -11%.

Turning to `O=C(NCCc1cccs1)c1ccccc1Sc1ccc2c(/C=C/c3ccccn3)n[nH]c2c1`, the inhibition at 0.0005 µM stood at 36%.

In the case of `O=C(Nc1cc(F)c(F)c(F)c1)c1ccccc1Sc1ccc2c(/C=C/c3ccccn3)n[nH]c2c1`, the inhibition at 0.0005 µM was 0%.

In the case of `O=C(Nc1c(Cl)cccc1Cl)c1ccccc1Sc1ccc2c(/C=C/c3ccccn3)n[nH]c2c1`, the inhibition at 0.0005 µM is -45%.

For `O=C(NNC(=O)c1ccccc1Nc1ccc2c(/C=C/c3ccccn3)n[nH]c2c1)c1cccnc1`, the inhibition at 0.0005 µM was 31%.

In the case of `Cc1cccc(NC(=O)c2ccccc2Sc2ccc3c(/C=C/c4ccccn4)n[nH]c3c2)c1`, the inhibition at 0.0005 µM is 3%.

As to `C[C@H](NC(=O)c1ccccc1Sc1ccc2c(/C=C/c3ccccn3)n[nH]c2c1)c1cccc2ccccc12`, the inhibition at 0.0005 µM is -20%.

For the molecule `CCCc1ccc(NC(=O)c2ccccc2Sc2ccc3c(/C=C/c4ccccn4)n[nH]c3c2)cc1`, the inhibition at 0.0005 µM turned out to be 22%.

As to `CC(C)(C)OC(=O)C(C)(C)NC(=O)c1ccccc1Sc1ccc2c(/C=C/c3ccccn3)n[nH]c2c1`, the inhibition at 0.0005 µM came to 6%.

Turning to `C[C@@H](O)CNC(=O)c1ccccc1Sc1ccc2c(/C=C/c3ccccn3)n[nH]c2c1`, the inhibition at 0.0005 µM was 22%.

Consider `CC(C)(Cc1ccc(F)cc1)NC(=O)c1ccccc1Sc1ccc2c(/C=C/c3ccccn3)n[nH]c2c1`, for which the inhibition at 0.0005 µM was -7%.

For the molecule `Cc1cc(C)c(NC(=O)c2ccccc2Sc2ccc3c(/C=C/c4ccccn4)n[nH]c3c2)c(Cl)c1`, the inhibition at 0.0005 µM is -26%.

Consider `O=C(Nc1cncc(Cl)n1)c1ccccc1Sc1ccc2c(/C=C/c3ccccn3)n[nH]c2c1`, for which the inhibition at 0.0005 µM amounted to 17%.

In the case of `O=C(Nc1ccc(O)c2ccccc12)c1ccccc1Sc1ccc2c(/C=C/c3ccccn3)n[nH]c2c1`, the inhibition at 0.0005 µM worked out at 4%.

For `CC1(C)C2CC[C@H](CNC(=O)c3ccccc3Sc3ccc4c(/C=C/c5ccccn5)n[nH]c4c3)C1C2` (stereo partly drawn), the inhibition at 0.0005 µM is -19%.

As to `O=C(N[C@@H]1CN2CC[C@H]1C2)c1ccccc1Nc1ccc2c(/C=C/c3ccccn3)n[nH]c2c1`, the inhibition at 0.0005 µM was determined as 12%.
